Measured values as given in patent publication US7875596B2, “Use of dermatan sulfates and/or desulfated heparins to treat or prevent heparinoid-induced autoimmune responses” (Celsus Biopharmaceuticals, Inc., priority 2004, dated 2011).

Legend:
[1] = biological target: T1, purified α-thrombin in the presence of purified human HCII (Homo sapiens, UniProt P05546); test: HCII/anti-IIa activity (plasma-free chromogenic anti-IIa assay with heparin cofactor II); type: biochemical
T1 construct: Performed in a plasma-free system with purified α-thrombin; purchased Enzyme Research Laboratories, South Bend Ind; (α-thrombin, Lot No. HT2450PRA)
T1 sequence (P05546 20-499): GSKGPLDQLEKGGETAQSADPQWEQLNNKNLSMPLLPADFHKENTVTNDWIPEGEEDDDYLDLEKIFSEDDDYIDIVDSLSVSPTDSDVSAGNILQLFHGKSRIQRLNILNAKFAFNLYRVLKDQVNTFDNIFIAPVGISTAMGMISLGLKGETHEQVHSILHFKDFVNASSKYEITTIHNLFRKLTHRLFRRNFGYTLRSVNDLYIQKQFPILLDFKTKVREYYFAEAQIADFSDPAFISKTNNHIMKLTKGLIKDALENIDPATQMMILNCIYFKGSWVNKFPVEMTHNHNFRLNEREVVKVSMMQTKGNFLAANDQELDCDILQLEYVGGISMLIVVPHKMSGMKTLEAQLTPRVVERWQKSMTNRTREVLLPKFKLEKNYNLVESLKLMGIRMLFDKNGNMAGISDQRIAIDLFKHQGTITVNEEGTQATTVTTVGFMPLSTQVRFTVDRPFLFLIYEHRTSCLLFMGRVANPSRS
Description: For the purposes of the present invention, the terms “heparin cofactor II (HCII)-dependent anti-IIa activity,” “heparin cofactor II activity” and “HCII activity” refer interchangeably to the thrombin inhibitory potency of a sulfated mucopolysaccharide measured in the presence of purified human heparin cofactor II.
The chemical, physical and physiological properties of the dermatan sulfates, including the LMWDS embodiments, of this invention can be determined by the following methods: • a. Molecular weight. By gel permeation chromatography according to the method of and as defined by van Dedem et al., “Determinations of the Molecular Mass of Low Molecular Mass (LMM) Heparin,” Pharmeuropa (1991) 3:202-225 (herein incorporated by reference), using the 1st International Reference Standard for Low Molecular Weight Heparin (90/868) as the calibrant. Average molecular weights. […] The % sulfur is determined from the weight of barium sulfate. • c. […] Measurements can be performed manually or on an ACL 300 Plus Analyzer (Instrumentation Laboratory, Lexington Mass.) and anti-factor IIa activity calculated based on the USP Heparin Reference Standard K-5 (U.S. Pharmacopeial Convention, Inc., Rockville Md.). • e. […] Quantified by the PF4 ENHANCED® ELISA kit (Cat. No. X-HAT 45) according to the manufacturer's instructions (GTI, Waukesha Wis.).

[2] = Heparin assay (USP heparin potency)
Description: The chemical, physical and physiological properties of the dermatan sulfates, including the LMWDS embodiments, of this invention can be determined by the following methods: • a. Molecular weight. By gel permeation chromatography according to the method of and as defined by van Dedem et al., “Determinations of the Molecular Mass of Low Molecular Mass (LMM) Heparin,” Pharmeuropa (1991) 3:202-225 (herein incorporated by reference), using the 1st International Reference Standard for Low Molecular Weight Heparin (90/868) as the calibrant. Average molecular weights. By viscometric methods as described by Liberti et al., “Physiochemical Studies of Fractionated Bovine Heparin II: Viscosity as a Function of Ionic Strength,” Arch. Biochem. Biophys. […] The % sulfur is determined from the weight of barium sulfate. • c. […] Measurements can be performed manually or on an ACL 300 Plus Analyzer (Instrumentation Laboratory, Lexington Mass.) and anti-factor IIa activity calculated based on the USP Heparin Reference Standard K-5 (U.S. Pharmacopeial Convention, Inc., Rockville Md.). • e. […] Quantified by the PF4 ENHANCED® ELISA kit (Cat. No. X-HAT 45) according to the manufacturer's instructions (GTI, Waukesha Wis.).
The chemical, physical and physiological properties of the O-desulfated heparins of this invention can be determined by the following methods: • a. […]

HCII/anti-IIa activity [1]: less than 15 u/mg
Substance: dermatan sulfate
heparin assay [2]: < 8 u/mg
